≈ marks a conversion by molar mass, not a printed value.
How the values were obtained:
Assay type in all cases: functional
[1] = tested on: Mycobacterium tuberculosis; assay: Antimycobacterial activity against thiacetazone-resistant Mycobacterium tuberculosis assessed as growth inhibition by Alamar blue assay
[2] = tested on: Mycobacterium tuberculosis; assay: Antimycobacterial activity against rifampin-resistant Mycobacterium tuberculosis assessed as growth inhibition by Alamar blue assay
[3] = tested on: Mycobacterium tuberculosis; assay: Antimycobacterial activity against ethambutol-resistant Mycobacterium tuberculosis assessed as growth inhibition by Alamar blue assay
[4] = tested on: Mycobacterium tuberculosis; assay: Antimycobacterial activity against isoniazid-resistant Mycobacterium tuberculosis assessed as growth inhibition by Alamar blue assay
[5] = tested on: Mycobacterium tuberculosis; assay: Antimycobacterial activity against ciprofloxacin-resistant Mycobacterium tuberculosis assessed as growth inhibition by Alamar blue assay
[6] = tested on: Mycobacterium tuberculosis; assay: Antimycobacterial activity against kanamycin-resistant Mycobacterium tuberculosis assessed as growth inhibition by Alamar blue assay

Row | SMILES | MIC90 [1] [µg/mL] | MIC90 [2] [µg/mL] | MIC90 [3] [µg/mL] | MIC90 [4] [µg/mL] | MIC90 [5] [µg/mL] | MIC90 [6] [µg/mL]
1 | CCCCCCCCCCCCSc1ncnc2c1ncn2CC(=O)OCC | 3.13 (≈ 7.7 µM) | 3.13 (≈ 7.7 µM) | 3.13 (≈ 7.7 µM) | 1.56 (≈ 3.84 µM) | 1.56 (≈ 3.84 µM) | –
2 | CCCCCCCCCCSc1ncnc2c1ncn2CC(=O)OCC | – | 6.25 (≈ 16.5 µM) | 6.25 (≈ 16.5 µM) | 12.5 (≈ 33 µM) | 12.5 (≈ 33 µM) | 6.25 (≈ 16.5 µM)
